# Columns and labels:
# [1] = tested on: MFC (mouse stomach cancer) homografts; experiment: MFC homograft (syngeneic) growth inhibition in 615 mice; format: in vivo; conditions: ITE 200-300 mg/kg i.p. once daily
# Experimental: (§1) All the procedures related to animal handling, care, and the treatment in the study were performed following guidelines of KeyGen Biotechn Co., Ltd. (Nanjing, China), a contract research organization we hired, based on the guidance of the Association for Assessment and Accreditation of Laboratory Animal Care (AAALAC). Animals were checked for any effects of tumor growth and drug treatment on normal behavior such as mobility, food and water consumption, body weight gain/loss (bodyweights were measured every two days), eye/hair matting, and any other abnormal effect. Death and observed clinical signs were recorded. Individual animals with a tumor volume exceeding 3,000 mm^3 or animals of a group with a mean tumor volume exceeding 2,000 mm^3 were euthanized. In addition, animals showing signs of severe distress and/or pain or losing the capability of accessing adequate food or water were humanely sacrificed.
# (§2) Cell lines HCT116, Siha, MFC were cultured in DMEM medium (high glucose) supplemented with 10% fetal bovine serum (FBS), SW116 and T24 in RPMI-1640 medium with 10% FBS, M14 and A375 in DMEM medium (high glucose) with 10% calf serum (CS), SGC7901 and Ketr-3 in RPMI-1640 medium with 10% CS, and CFPAC-1 in IMDM medium with 10% FBS. All of the cells were cultured, in the presence of 100 U/ml penicillin and 100 μg/ml streptomycin, at 37° C. in an atmosphere of 5% CO2 in air. […] The cells growing in an exponential phase were harvested and counted for tumor inoculation. Cell lines 5180 and U14 were maintained in ascites (peritoneal cavity fluid) of mice and were harvested and counted for tumor inoculation. […]
# (§3) Tumor volume was measured every two days in two dimensions using a caliper and the volume was calculated with a formula of: V=0.5 a×b^2, where a and b are the long and short diameter (in mm) of a tumor, respectively. […] The TGD was calculated as: TGD=T−C, where T was the time (in days) required for tumors in a drug treated group to reach a predetermined mean tumor volume and C the time (in days) in the control group to reach the same volume. […]
# [2] = tested on: SGC7901 (human stomach cancer) xenografts; experiment: SGC7901 xenograft growth inhibition; format: in vivo; conditions: ITE 100-200 mg/kg i.p. once daily
# Experimental: as §1, §2, §3
# [3] = end of therapy relative to beginning
smiles,measurement,setting,value
"COC(=O)c1csc(C(=O)c2c[nH]c3ccccc23)n1 [ITE, 2-(1′H-indole-3′-carbonyl)-thiazole-4-carboxylic acid methyl ester]",TGD,"[1]; TGD at Vol. 2,000",9 days
same,TGI (%),"[1]; TGI at day 10, TGI=(1−ΔT/ΔC)×100%",70%
same,Weight Loss,[1]; [3],16%
same,TGD,"[2]; TGD at Vol. 1,000",4 days
same,TGI (%),"[2]; TGI at day 18, TGI=(1−ΔT/ΔC)×100%",50%
same,Weight Loss,[2]; [3],12%

# Reference: patent US10632106B2, “Methods of cancer treatment with 2-(1′H-Indole-3′-carbonyl)-thiazole-4-carboxylic acid methyl ester” (Ariagen, Inc., priority 2009, dated 2020)
